Data published in patent EP1163907A1, “Use of l-threo-methylphenidate for the treatment of depression” (Pharmaquest Limited, priority 2000, dated 2001).
Where two headings read alike, the source gives them in different places. Marks after values point to notes of the source that are not given here.

Assays:
[1] = oral, cited from earlier work
[2] = Balanced, randomized 4-phase cross-over study, Profile of Mood State (POMS) rating scale after intravenous administration; format: in vivo, healthy male volunteers; settings: for composite "Dysphoria" ratings: POMS Anger-Hostility plus Depression plus Tension-Anxiety, compared with placebo, Figure 3; for vigor ratings: POMS Vigor-Activity, compared with 1-MPH and placebo, Figure 2; for effect on "Energy": POMS composite score (Vigor-Activity minus Fatigue-Inertia), Figure 1; for rank order of ratings of the three components of "Dysphoria" (Tension, Depression and Anger): four treatments, same order for each component, Figure 4
Method: A balanced, randomized 4-phase cross-over study was carried out in 12 healthy male volunteers who each received intravenous administrations of dl-MPH, d-threo-methylphenidate (d-MPH), 1-MPH and placebo. The Profile of Mood State (POMS) rating scale was used to estimate pharmacodynamic factors including Anger-Hostility, Confusion-Bewilderment, Depression-Dejection, Fatigue-Inertia, Tension-Anxiety, and Vigor-Activity. In addition composite scores were also produced for "Energy" ("Vigor-Activity" minus "Fatigue-Inertia") and 'Dysphoria" ("Anger-Hostility" plus […] plus "Tension-Anxiety").
This paradox apparently arose because d-MPH enhanced both components of "Energy" (Vigor-Activity and Fatigue-Inertia) over the test period.
The Fatigue-Inertia factor was not a simple rebound phenomenon.
There were very robust effects of drug condition on composite "Dysphoria" ratings. The d-MPH and to a lesser extent dl-MPH both increased "Dysphoria" compared with the placebo or 1-MPH.
Figure 4 depicts the response of the three components of "Dysphoria" (Tension, Depression and Anger) to the four treatments. […] Thus it appears that the overall pharmacodynamic effect of dl-MPH may represent an interaction between the "Dysphoric" effects of d-MPH and the mildly euphoric effects of 1-MPH. It is conceivable that the 1-MPH will emerge as euphoriant or antidepressant in subjects with higher baseline "Dysphoria" scores such as depressed patients in whom the dose of 1-MPH will have to be titrated.

[3] = mean ±SD in plasma; intravenous 10mg dl-MPH; 11 healthy male volunteers; cited from earlier work
[4] = cited from earlier work
[5] = target: central dopamine transporters (Homo sapiens, UniProt Q01959); settings: after oral administration of dl-MPH in humans; cited from earlier work
Chain of central dopamine transporters (Q01959 whole entry): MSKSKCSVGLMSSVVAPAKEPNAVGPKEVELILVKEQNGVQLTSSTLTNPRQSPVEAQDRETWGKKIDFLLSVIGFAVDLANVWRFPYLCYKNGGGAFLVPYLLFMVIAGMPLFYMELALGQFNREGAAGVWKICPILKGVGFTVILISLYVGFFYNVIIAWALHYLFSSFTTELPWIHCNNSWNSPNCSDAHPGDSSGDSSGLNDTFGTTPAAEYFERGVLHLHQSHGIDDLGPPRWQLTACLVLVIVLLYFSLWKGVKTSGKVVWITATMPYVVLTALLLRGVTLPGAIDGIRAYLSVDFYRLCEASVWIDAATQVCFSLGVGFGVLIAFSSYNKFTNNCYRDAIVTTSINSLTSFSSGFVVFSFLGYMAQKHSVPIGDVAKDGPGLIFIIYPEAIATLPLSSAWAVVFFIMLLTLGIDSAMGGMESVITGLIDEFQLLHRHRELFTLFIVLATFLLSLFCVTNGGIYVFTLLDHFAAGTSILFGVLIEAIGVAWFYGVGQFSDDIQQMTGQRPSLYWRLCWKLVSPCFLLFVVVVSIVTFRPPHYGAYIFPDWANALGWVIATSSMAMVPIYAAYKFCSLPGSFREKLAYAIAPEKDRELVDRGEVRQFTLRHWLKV

Compound	Hamilton depression scale decreased ([1]; 3 subjects, decreased minimally) [%]	Hamilton depression scale decreased ([1]; 7 subjects, depressive symptoms decreased markedly) [%]	benefit in depressed patients ([1]; n = 16)	composite "Dysphoria" ratings [2]	vigor ratings [2]	effect on "Energy" [2]	rank order of ratings of the three components of "Dysphoria" (Tension, Depression and Anger) [2]	CL [3]	CLR [3]	MRT [3]	Vdss [3]	concentrations in plasma and brain ([4]; after oral administration of dl-MPH, extensive enantioselective first pass metabolism)	absolute bioavailability (F) ([4]; after oral administration of the racemic drug)	blocking central dopamine transporters [5]
COC(=O)[C@H](c1ccccc1)[C@H]1CCCCN1 (racemic) [dl-MPH, dl-threo-methylphenidate]	< 30	> 55	statistically and clinically significant	increased	significantly different	enhanced	1-MPH < placebo < dl-MPH < d-MPH	–	–	–	–	–	–	–
COC(=O)[C@@H](c1ccccc1)[C@@H]1CCCCN1 [1-MPH, 2S,2'S-methyl 2-phenyl-2-(2'-piperidyl)acetate]	–	–	–	numerically lower	–	–	1-MPH < placebo < dl-MPH < d-MPH	0.73±0.028^h L/kg.h^-1	0.005±0.003^c l/kg.h^-1	2.44±0.51^b h	1.80±0.91^b L/kg	very low	–	–
COC(=O)[C@H](c1ccccc1)[C@H]1CCCCN1 [d-MPH, d-threo-methylphenidate]	–	–	–	increased	significantly different	not strongly energizing	1-MPH < placebo < dl-MPH < d-MPH	–	0.005±0.003 l/kg.h^-1	6.53 ± 1.62 h	2.65 ± 1.11 L/kg	–	0.25	very effective
